Measurements reported in patent publication US20110117168A1, “METHODS AND COMPOSITIONS FOR SOFT TISSUE REPAIR” (AFFINERGY, INC., priority 2009, published 2011).
Ends that are not written are not given here.

Test system: human MSCs
Test: Capture of cultured MSCs with peptide on […] Streptavidin microbeads in LS columns
Format: cell-based
Conditions: 160,000 cultured human MSCs, peptide 20 μM on Streptavidin microbeads, LS column
Protocol: In this experiment the ability of the biotinylated cell binding peptide SEQ ID NO: 4 to capture human MSCs from a homogeneous cultured cell population was examined. The cell binding peptide SEQ ID NO: 4 was biotinylated as described herein at Example 2. The cell binding peptide SEQ ID NO: 4, and a non-binding control peptide, were added to separate 300 μl volumes of […] BIOTEC Streptavidin microbeads at a concentration of 20 μM. These beads are made from iron filings, coated with a dextran coating which is functionalized with streptavidin moieties. Peptide was incubated with beads for 45 min on ice. The 300 μl of peptide coated microbeads were added to pre-equilibrated LS columns outside of the magnetic field to evenly distribute the magnetic beads throughout the columns. Columns were then placed into a magnetic field, and excess peptide was washed away with buffer while retaining the peptide coated microbeads. Cultured and expanded human MSCs from bone marrow aspirate (160,000 cells; LONZA) were added to each LS column and allowed to pass through by gravity flow. Flowthrough was collected and cycled through the columns 5 times, after which the columns were washed with 5 ml buffer. […] The collected flowthrough with 5 ml wash and eluted cells were spun down, resuspended in a smaller volume, and counted by hemacytometer (see FIG. 17). […]

SSFWDVCQGDGTCYGGGSR (SSFWDVCQGDGTCYGGGSRGSSG-{K(biotin)}; cysteine pairing not given here) [SEQ ID NO: 4, tested biotinylated with GSSGK(biotin) or other spacer at the C-terminus]
capture of MSCs: approximately 70%
